Values belong to the compound of their own block, whether it stands above or below them.
Columns and labels:
[1] = Plasma and brain PK (IV / IP dosing)
[2] = BBB penetration (method not described); details: brain / plasma, iv, 5 mg/kg; read-out: unlabelled value after the PK data (matches brain/plasma AUClast ratio, 5mpk IV)
[3] = Microsomes stability; assay type: in vitro ADME
[4] = Plasma and brain PK (5 mg/kg IV); assay type: in vivo; details: female CD-1 mice; for Tmax / Cmax / AUC(0-t): mouse; for AUC(0-t): read-out: Plasma AUClast
[5] = Solubility remark; assay type: physicochemical; details: remark in words
[6] = in vitro; details: human, Caco-2
[7] = brain, read-out: Brain Tmax (converted)

SMILES: Br.COCC(Cc1ccc(C)cc1)n1c(=N)n(C(C)c2ccc(C)cc2)c2cccnc21 (single isomer, unassigned) [WZ-II-149]
Cl_F_obs ([1]; Brain PK, 5 mg/Kg (5mpk) IV): 1491.875 mL/min | Vz_F_obs ([1]; Brain PK, 5 mg/Kg (5mpk) IV): 286490.1 mL | Cl_F_obs ([1]; Brain PK, 10 mpk IP): 24837.56 mL/min | HL_Lambda_z ([1]; Brain PK, 10 mpk IP): 64.37 min | Vz_F_obs ([1]; Brain PK, 10 mpk IP): 2306714 mL | Cl_F_obs ([1]; Plasma PK, 5 mg/Kg (5mpk) IV): 1689.5566 mL/min | Vz_F_obs ([1]; Plasma PK, 5 mg/Kg (5mpk) IV): 101565.51 mL | Cl_F_obs ([1]; Plasma PK, 10 mpk IP): 3706.43 mL/min | HL_Lambda_z ([1]; Plasma PK, 10 mpk IP): 38.92 min | Vz_F_obs ([1]; Plasma PK, 10 mpk IP): 208114 mL, | AUC(0-t) ([1]; brain, ip, 10 mg/kg): 134 ng·h/mL | Cmax ([1]; brain, ip, 10 mg/kg): 77.8 ng/mL | Tmax ([1]; brain, ip, 10 mg/kg): 10 min | AUC(0-t) ([1]; brain, iv, 5 mg/kg): 1280 ng·h/mL | Cmax ([1]; brain, iv, 5 mg/kg): 1300 ng/mL | Tmax ([1]; brain, iv, 5 mg/kg): 10 min | half-life ([1]; brain, iv, 5 mg/kg): 133 min | AUC(0-t) ([1]; plasma, ip, 10 mg/kg): 1000 ng·h/mL | Cmax ([1]; plasma, ip, 10 mg/kg): 638 ng/mL | Tmax ([1]; plasma, ip, 10 mg/kg): 10 min | AUC(0-t) ([1]; plasma, iv, 5 mg/kg): 1130 ng·h/mL | Cmax ([1]; plasma, iv, 5 mg/kg): 1050 ng/mL | Tmax ([1]; plasma, iv, 5 mg/kg): 10 min | half-life ([1]; plasma, iv, 5 mg/kg): 41.7 min | Kp [2]: 1.13

SMILES: Br.Cc1ccc(CC(C(=O)N2CC(C#N)C2)n2c(=N)n(C(C)c3ccc(C)cc3)c3cccnc32)cc1 (single isomer, unassigned) [WZ-II-253]
Cl_F_obs ([1]; Brain PK, 5 mg/Kg (5mpk) IV): 9.5 mL/min | Vz_F_obs ([1]; Brain PK, 5 mg/Kg (5mpk) IV): 642 mL, | Cl_F_obs ([1]; Plasma PK, 5 mg/Kg (5mpk) IV): 3.86 mL/min | Vz_F_obs ([1]; Plasma PK, 5 mg/Kg (5mpk) IV): 221 mL | AUC(0-t) ([1]; brain, iv, 5 mg/kg): 209 ng·h/mL | Cmax ([1]; brain, iv, 5 mg/kg): 218 ng/mL | Tmax ([1]; brain, iv, 5 mg/kg): 10 min | half-life ([1]; brain, iv, 5 mg/kg): 47 min | AUC(0-t) ([1]; plasma, iv, 5 mg/kg): 518 ng·h/mL | Cmax ([1]; plasma, iv, 5 mg/kg): 651 ng/mL | Tmax ([1]; plasma, iv, 5 mg/kg): 10 min | half-life ([1]; plasma, iv, 5 mg/kg): 40 min

SMILES: Br.Cc1ccc(C[C@@H](C(=O)N2CC3(COC3)C2)n2c(=N)n(C(C)c3ccc(C)cc3)c3ccccc32)cc1 (stereo partly drawn) [WZ-II-151, (2S)-2-(2-imino-3-(1-(p-tolyl)ethyl)-2,3-dihydro-1H-benzo[d]imidazol-1-yl)-1-(2-oxa-6-azaspiro[3.3]heptan-6-yl)-3-(p-tolyl)propan-1-one]
Cl_F_obs ([1]; Brain PK, 5 mg/Kg (5mpk) IV): 22.9 mL/min | Vz_F_obs ([1]; Brain PK, 5 mg/Kg (5mpk) IV): 8876 mL | Cl_F_obs ([1]; Plasma PK, 5 mg/Kg (5mpk) IV): 2.39 mL/min | Vz_F_obs ([1]; Plasma PK, 5 mg/Kg (5mpk) IV): 453 mL | AUC(0-t) ([1]; brain, iv, 5 mg/kg): 93.1 ng·h/mL | Cmax ([1]; brain, iv, 5 mg/kg): 22.7 ng/mL | Tmax ([1]; brain, iv, 5 mg/kg): 10 min | half-life ([1]; brain, iv, 5 mg/kg): 269 min | AUC(0-t) ([1]; plasma, iv, 5 mg/kg): 908 ng·h/mL | Cmax ([1]; plasma, iv, 5 mg/kg): 869 ng/mL | Tmax ([1]; plasma, iv, 5 mg/kg): 10 min | half-life ([1]; plasma, iv, 5 mg/kg): 131 min

SMILES: Cc1ccc(Cn2c(=N)n(C(CO)Cc3cc[nH]c(=O)c3)c3ccccc32)cc1 (centres unmarked) [ww4-89]
solubility [5]: solubility issue along with tauto- meriza- tion, only proton NMR and LC-MS

SMILES: Cc1ccc(CC(CNC(=O)CF)n2c(=N)n(Cc3ccc(C)cc3)c3ccccc32)cc1 (centres unmarked) [ww5-308]
Papp A→B [6]: 3.05 ×10⁻⁶ cm/s | Papp B→A [6]: 8.72 ×10⁻⁶ cm/s

Further lines, results first:

microsomal CLint [3]: 17 µL/min/mg | half-life ([3]; read-out: Microsomes stability T1/2): 19 min | Brain AUClast ([4]; brain): 38968.815 ng·min/mL | Brain Cmax ([4]; brain): 143.31 ng/mL | Brain HL_Lambda_z ([4]; brain): 134.1 min | Tmax [4, 7]: 30 min | Cmax ([4]; plasma): 841 ng/mL | AUC(0-t) ([4]; plasma): 986 ng·h/mL | Tmax ([4]; plasma, read-out: Plasma Tmax): 10 min | Plasma Cl_F_obs ([4]; plasma): 1.922 mL/min | Plasma HL_Lambda_z ([4]; plasma): 74.04 min | Plasma Vz_F_obs ([4]; plasma): 205.3 mL
SMILES: COCC(Cc1ccc(C)cc1)n1c(=N)n(C(c2ccc(C)cc2)C2CC2)c2ccccc21 (single isomer, unassigned) [ww6-61]

Papp A→B [6]: 2.19 ×10⁻⁶ cm/s | Papp B→A [6]: 5.47 ×10⁻⁶ cm/s | efflux ratio [6]: 2.5
SMILES: C/N=c1\n(Cc2ccc(C)cc2)c2ccccc2n1C(CO)Cc1ccc(C)cc1 (centres unmarked) [ww4-276]

Brain AUClast ([4]; brain): 11291.545 ng·min/mL | Brain Cmax ([4]; brain): 15.29 ng/mL | Brain HL_Lambda_z ([4]; brain): 728.6 min | Tmax [4, 7]: 30 min | Cmax ([4]; plasma): 600 ng/mL | AUC(0-t) ([4]; plasma): 691 ng·h/mL | Tmax ([4]; plasma, read-out: Plasma Tmax): 10 min | Plasma Cl_F_obs ([4]; plasma): 2.72 mL/min | Plasma HL_Lambda_z ([4]; plasma): 230.4 min | Plasma Vz_F_obs ([4]; plasma): 904.1 mL
SMILES: Cc1ccc(CC(CNC(=O)CO)n2c(=N)n([C@@H](C)c3ccc(C)cc3)c3ccccc32)cc1 (some centres unmarked) [ww5-189]
